From patent US10772886B2, “CXCR-2 inhibitors for treating crystal arthropathy disorders” (ARDEA BIOSCIENCES, INC., priority 2016, dated 2020)

Legend:
neutrophils = test: Cell migration (chemotaxis) assay, neutrophil counts; format: cell-based; details: 10 μM; MSU-conditioned media; FIG. 1A
PBMCs = test: Cell migration (chemotaxis) assay, PBMC counts; format: cell-based; details: 10 μM; MSU crystal conditioned media; FIG. 1B
Procedure: Primary blood monocytes (PMBC) were obtained from the lymphocyte layer (buffy coat) of peripheral blood from normal donors. Each leukopack (Interstate Blood Bank) was diluted with an equal volume of PBS, and 35 mL of blood preparation was over-laid onto 15 mL of Ficoll-Paque™ PLUS (GE Healthcare Bio-Sciences). Tubes were centrifuged at 700×g without breaks for 30 minutes at room temperature. The buffy coat interface was removed, added to PBS (40 mL), and centrifuged at 300×g. Any remaining erythrocytes in the cell pellet were lysed by incubating cells in red blood cell lysis buffer (10 mL, R&D Systems) for 10 minutes at room temperature. Following lysis, PBS (40 mL) was added and the cells centrifuged for 5 minutes at 200×g. The pellet was washed once with PBS and re-suspended in complete RPMI and seeded onto a BD Falcon™ 100 mm tissue culture dish (Cat. No. 353003). After one hour, the media was aspirated and the adherent cells (predominantly monocytes) were harvested using a cell scraper and used in chemotaxis assays. Chemotaxis was assayed in 48-well plates with BD Falcon FluoroBlok Multiwell inserts with 3 μm pores (Cat. No. 351161 or 351162) coated with hFN. […] Fluorescence emitted from cells that had migrated to the bottom surface of the insert was measured at various time points. Cells labeled with Calcein AM were read at 485/530 nm (Ex/Em) wavelength. […]

CXCR-2 = target: T1, CXCR-2 (Homo sapiens, UniProt P25025); details: cited from earlier work
T1 sequence (P25025 1-360): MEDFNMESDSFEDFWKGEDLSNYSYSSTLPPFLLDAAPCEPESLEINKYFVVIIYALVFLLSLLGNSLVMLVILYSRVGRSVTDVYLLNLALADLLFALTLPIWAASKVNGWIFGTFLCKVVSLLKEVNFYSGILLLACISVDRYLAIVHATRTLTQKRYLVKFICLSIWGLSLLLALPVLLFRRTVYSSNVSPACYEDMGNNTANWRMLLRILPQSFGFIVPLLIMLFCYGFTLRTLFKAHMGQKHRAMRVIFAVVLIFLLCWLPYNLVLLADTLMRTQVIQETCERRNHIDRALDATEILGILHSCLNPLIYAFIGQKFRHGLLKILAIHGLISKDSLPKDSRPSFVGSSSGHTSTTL

In the case of `O=C(Nc1ccc(Cl)c(S(=O)(=O)N2CCNCC2)c1O)Nc1cccc(F)c1Cl` [Compound 1, 1-(4-chloro-2-hydroxy-3-(piperazin-1-ylsulfonyl)phenyl)-3-(2-chloro-3-fluorophenyl)urea], the “inhibition of migration in neutrophils” value (neutrophils) is given as “significant inhibition of migration”, the “inhibition in migration in PBMCs” value (PBMCs) is given as “significant inhibition in migration” and the “inhibit CXCR-2” value (CXCR-2) is given as “shown to inhibit CXCR-2”.
